From patent US4758555A, “Method for treating convulsions and epilepsy with organic copper compounds” (priority 1986, dated 1988)
“Also recorded” adds a separate entry of the source.

Experiments:
[1] = Maximal Electroshock Seizure Test; format: in vivo, male Carworth Farms #1 mice or Sprague-Dawley rats; conditions: for Anticonvulsant activity, Maximal Electroshock: Table VI; for Lowest active dose, MES (Phase I): Table V; for Lowest effective dose, MES (Phase I) / ED50 for inhibition of seizures, MES (Phase II): Table X; for ED50 for inhibition of seizures, MES (Phase II): at time of peak activity
[2] = Subcutaneous Pentylenetetrazol (Metrazol) Seizure Threshold Test; format: in vivo, male Carworth Farms #1 mice or Sprague-Dawley rats; conditions: for Anticonvulsant activity, Metrazol: Table VI; for Protection against Metrazol-induced seizures (in words): running text; for Lowest active dose, Metrazol (Phase I): Table V; for Lowest effective dose, Metrazol (Phase I) / ED50 for inhibition of seizures, Metrazol (Phase II): Table X; for ED50 for inhibition of seizures, Metrazol (Phase II): at time of peak activity
[3] = Anticonvulsant activity, both or unspecified seizure models; format: in vivo, male Carworth Farms #1 mice or Sprague-Dawley rats; conditions: for Time of peak activity (Phase II): Table X, IP, challenge time
[4] = 50, 100 and 300 mg/kg at 0.75, 1.5 and 3 hours post subcutaneous injection at a site different from Metrazol; cited from earlier work
[5] = Lethality / acute toxicity (LD50 in 24 hours); conditions: for Lethality (in words): dose and time given in the source; for Doses causing death in some of the test groups: in vivo
From the text: Test compounds were either dissolved in 0.9% saline, or suspended in either 30% polyethylene glycol 400 in 0.9% saline or 0.2% suspending agent like polyoxyethylene glycol or Tween 80 in 0.9% saline prior to injection into male Carworth Farms #1 mice or Sprague-Dawley rats.
In Phase I identification of anticonvulsant activity, test compounds were given intraperitoneally (IP) at 30, 100, 300 and, in some cases, 600 milligrams per kilogram (mg/kg) of body weight and protection against Maximal Electroshock and/or Metrazol-induced seizures was determined 30 minutes, 4 hours, or later. […] Subsequently the routine protocol was modified and certain of the test compounds (see Tables, infra) re-evaluated following subcutaneous (SC) injection at periods of up to 8 hours post injection.
All statistics were obtained by probit analyses.

[6] = Sleep time / hypnosis or sedation; format: in vivo; conditions: Table IX; intraperitoneal; 65 mg/kg; 5 animals
Method: In Phase I identification of anticonvulsant activity, test compounds were given intraperitoneally (IP) at 30, 100, 300 and, in some cases, 600 milligrams per kilogram (mg/kg) of body weight and protection against Maximal Electroshock and/or Metrazol-induced seizures was determined 30 minutes, 4 hours, or later. […] Subsequently the routine protocol was modified and certain of the test compounds (see Tables, infra) re-evaluated following subcutaneous (SC) injection at periods of up to 8 hours post injection. Subcutaneous administration can be helpful in determining whether or not hypnotic activity can be distinguished from anticonvulsant activity based upon the decreased rate of absorption associated with this route of administration as opposed to the more rapid rate of absorption associated with IP administration.

[7] = Rotating rod neurotoxicity; conditions: dose and time given in the source
[8] = SC at site different from injection of Metrazol

## Copper acetate [Cu(II)2 (acetate)4]
[1]; IP
  Anticonvulsant activity, Maximal Electroshock: I
[1]; SC, same injection site used for injection of Metrazol
  Anticonvulsant activity, Maximal Electroshock: I
[1]; intragastric
  Anticonvulsant activity, Maximal Electroshock: I
[2]; [8]
  Anticonvulsant activity, Metrazol: I
[2]; intragastric
  Anticonvulsant activity, Metrazol: I
[2]; intraperitoneal (copper acetate: site different from Metrazol)
  Lowest dose with activity against Metrazol-induced seizures: 5 mg/kg
[2]
  Protection against Metrazol-induced seizures (in words): effective in inhibiting Metrazol-induced seizures
[3]; running text
  Anticonvulsant activity (in words): active when injected at the same site as the site of Metrazol injection; also recorded: lack of anticonvulsant activity
[3]; running text, listed as copper acetate
  Anticonvulsant activity (in words): inactive when administered orally
[4]
  Anticonvulsant activity reported previously (in words): no anticonvulsant activity

## [Cl][Cu][Cl] [copper chloride]
[4]
  Anticonvulsant activity reported previously (in words): no anticonvulsant activity

## CC(=O)Nc1ccc(C(=O)[O-])c(O)c1.CC(=O)Nc1ccc(C(=O)[O-])c(O)c1.[Cu+2] [Cu(II)(4-acetylaminosalicylate)2]
[2]; Table II, IP
  Anticonvulsant activity, Metrazol (Phase I): I
[3]; running text
  Anticonvulsant activity (in words): effective in preventing seizures
[5]
  Lethality (in words): Lethal at 100 mg/kg at 4 hours

## CCC1(CCC(C)C)C(=O)NC(=O)NC1=O [Na amobarbital, sodium (Na) amobarbital, reference compound]
[1]; Table IX, maximal electroshock, intraperitoneal, 65 mg/kg, 5 animals
  Protection Against Seizure: 0 Percent protected
[6]
  Average Sleep Time: 0 min

## O=C(O)c1ccccc1[O-].O=C(O)c1ccccc1[O-].[Cu+2] [Cu(II)(salicylate)2]
[1]; Phase II, SC
  ED50 for protection against Maximal Electroshock-induced seizures: 360 mg/kg
[1]; SC, 600 mg/kg, Phase II
  Time of peak effect, inhibition of Maximal Electroshock induced seizures: 7 h
[1]; SC, 600 mg/kg, at 24 hours, Phase II
  Inhibition of Maximal Electroshock-induced seizure: 37%
[1]; Table II, SC
  Anticonvulsant activity, Maximal Electroshock (Phase I): I
[1]; running text
  Protection against Maximal Electroshock-induced seizures (in words): onset of protection against Maximal Electroshock-induced seizure was slower but the activity was prolonged over the 24-hour period; also recorded: inactive in protecting against the Maximal Electroshock-induced seizure in routine Phase I studies; also recorded: active in protecting against this seizure when higher doses were used and the activity was evaluated at different time periods
[2]; Phase II, SC
  ED50 for protection against Metrazol-induced seizures: 38 mg/kg
[2]; SC, 100 mg/kg, Phase II
  Time of peak effect, inhibition of Metrazol-induced seizures: 2 h
[2]
  Protection against Metrazol-induced seizures (in words): rapid onset of protection against the Metrazol-induced seizure which decreases over the extrapolated period of 7 hours
[3]; running text
  Anticonvulsant activity (in words): effective at the higher doses studied and for prolonged periods of up to 4 hours
[5]; 24-hour, Phase II
  LD50: 441 mg/kg

## Cu(II)2 (phenylacetate)4
[2]
  Protection against Metrazol-induced seizures (in words): effective in protecting against Metrazol-induced seizures
[7]
  Rotating rod toxicity (in words): Rotating rod toxicity at 300 mg/kg

## Cc1ncc(CO)c(C=N[C@@H](CO)C(=O)[O-])c1[O-].O.[Cu+2] [Cu(II)Pyridoxylidene-L-serinate(H2 O)]
[1]; IP, challenge time 30 min
  Lowest active dose, MES (Phase I): I
[1]; IP, challenge time 4 hrs
  Lowest active dose, MES (Phase I): I
[2]; IP, challenge time 30 min
  Lowest active dose, Metrazol (Phase I): 100 mg/kg of body weight
[2]; IP, challenge time 4 hrs
  Lowest active dose, Metrazol (Phase I): 100 mg/kg of body weight
[3]; running text
  Anticonvulsant activity (in words): more effective but only protected against the Metrazol-induced seizure

## Cc1ncc(CO)c(C=NC(C(=O)[O-])C(C)O)c1[O-].O.O.[Cu+2] [Cu(II)Pyridoxylidene-L-threoninate(H2 O)2]
[1]; IP, challenge time 30 min
  Lowest active dose, MES (Phase I): I
[1]; IP, challenge time 4 hrs
  Lowest active dose, MES (Phase I): I
[2]; IP, challenge time 30 min
  Lowest active dose, Metrazol (Phase I): 30 mg/kg of body weight
[2]; IP, challenge time 4 hrs
  Lowest active dose, Metrazol (Phase I): 30 mg/kg of body weight
[3]; running text
  Anticonvulsant activity (in words): more effective but only protected against the Metrazol-induced seizure

## Cu(II)α-methyl-α-phenylsuccinimide(H2 O)0.75
[1]; IP, challenge time 30 min
  Lowest effective dose, MES (Phase I): 100 milligrams per kilogram of bod
[1]; IP, challenge time 4 hrs
  Lowest effective dose, MES (Phase I): I
[1]; SC, challenge time 30 min
  Lowest effective dose, MES (Phase I): 30 milligrams per kilogram of bod
[1]; SC, challenge time 4 hrs
  Lowest effective dose, MES (Phase I): 100 milligrams per kilogram of bod
[2]; IP, challenge time 30 min
  Lowest effective dose, Metrazol (Phase I): 100 milligrams per kilogram of bod
[2]; IP, challenge time 4 hrs
  Lowest effective dose, Metrazol (Phase I): 100 milligrams per kilogram of bod
[2]; SC, challenge time 30 min
  Lowest effective dose, Metrazol (Phase I): 30 milligrams per kilogram of bod
[2]; SC, challenge time 4 hrs
  Lowest effective dose, Metrazol (Phase I): 600 milligrams per kilogram of bod
[3]; running text
  Anticonvulsant activity (in words): effective in preventing both types of seizure with rapid onsets of action and prolonged durations of action following subcutaneous and intraperitoneal administration

## CC(=O)CC(C)=NCCN=C(C)CC(C)=O.[Cu] [Cu(II) Bisacetylacetonethyleneimine]
[3]; running text
  Anticonvulsant activity (in words): effective in preventing both Maximal Electroshock and Metrazol-induced seizures
[7]; listed as bisacetylacetonethyleneimine complex
  Rotating rod toxicity (in words): rotating rod toxicity, which may also have been due to hypnotic activity, was found at the higher doses studied

## O.O.O.O=C1[N-]C(=O)C(c2ccccc2)(c2ccccc2)N1.O=C1[N-]C(=O)C(c2ccccc2)(c2ccccc2)N1.[Cu+2] [Cu(II)(Dilantin)2 (H2 O)3]
[1]; IP
  ED50 for inhibition of seizures, MES (Phase II): 13 mg/kg
[1]; IP, challenge time 30 min
  Lowest effective dose, MES (Phase I): 30 milligrams per kilogram of bod
[1]; IP, challenge time 4 hrs
  Lowest effective dose, MES (Phase I): 30 milligrams per kilogram of bod
[2]; IP, challenge time 30 min
  Lowest effective dose, Metrazol (Phase I): 100 milligrams per kilogram of bod
[2]; IP, challenge time 4 hrs
  Lowest effective dose, Metrazol (Phase I): 100 milligrams per kilogram of bod
[3]
  Onset and duration of anticonvulsant action (in words): rapid onset and prolonged duration in inhibiting only Maximal Electroshock-induced seizures
  Time of peak activity (Phase II): 4 h
[3]; Phase II
  Time of peak effect: 4 h
[3]; running text
  Anticonvulsant activity (in words): did not potentiate but did block both types of seizures

## Cu(II) Salicylidene-L-valinate
[1]; Table IV, IP
  Anticonvulsant activity, Maximal Electroshock (Phase I): I
[1]; Table IV, SC
  Anticonvulsant activity, Maximal Electroshock (Phase I): I
[5]
  Lethality (in words): Lethal at higher doses
[5]; listed as salicylidene-L-valinate complex
  Lethality (in words): caused lethality at higher doses

## Cu(II)oxazepam
[1]; IP, challenge time 30 min
  Lowest effective dose, MES (Phase I): 10 milligrams per kilogram of bod
[1]; IP, challenge time 4 hrs
  Lowest effective dose, MES (Phase I): I
[2]; IP, challenge time 30 min
  Lowest effective dose, Metrazol (Phase I): 1 milligrams per kilogram of bod
[2]; IP, challenge time 4 hrs
  Lowest effective dose, Metrazol (Phase I): 10 milligrams per kilogram of bod
[3]
  Onset and duration of anticonvulsant action (in words): more prolonged in its action against Metrazol induced seizures
[3]; running text
  Anticonvulsant activity (in words): protected against both types of seizure

## CC[C@H](C)[C@H](N)C(=O)[O-].CC[C@H](C)[C@H](N)C(=O)[O-].[Cu+2] [Cu(II)(L-isoleucinate)2]
[3]; listed as isoleucine complex
  Anticonvulsant activity (in words): inhibited both the Maximal Electroshock and Metrazol-induced seizures in these Phase I tests
[3]; running text
  Anticonvulsant activity (in words): found to have anticonvulsant activity
[5]
  Lethality (in words): Lethal at higher doses

## CCC1(c2ccccc2)C(=O)[N-]C(=O)NC1=O.CCC1(c2ccccc2)C(=O)[N-]C(=O)NC1=O.CCC1(c2ccccc2)C(=O)[N-]C(=O)NC1=O.CCC1(c2ccccc2)C(=O)[N-]C(=O)NC1=O.O.O.[Cu+2].[Na+].[Na+] [Na2 [Cu(II)(Phenobarbital)4](H2 O)2]
[1]; IP
  ED50 for inhibition of seizures, MES (Phase II): 25 mg/kg
[1]; IP, challenge time 30 min
  Lowest effective dose, MES (Phase I): 30 milligrams per kilogram of bod
[1]; IP, challenge time 4 hrs
  Lowest effective dose, MES (Phase I): 100 milligrams per kilogram of bod
[1]; SC, challenge time 30 min
  Lowest effective dose, MES (Phase I): 30 milligrams per kilogram of bod
[1]; SC, challenge time 4 hrs
  Lowest effective dose, MES (Phase I): 30 milligrams per kilogram of bod
[2]; IP
  ED50 for inhibition of seizures, Metrazol (Phase II): 20 mg/kg
[2]; IP, challenge time 30 min
  Lowest effective dose, Metrazol (Phase I): 30 milligrams per kilogram of bod
[2]; IP, challenge time 4 hrs
  Lowest effective dose, Metrazol (Phase I): 100 milligrams per kilogram of bod
[2]; SC, challenge time 30 min
  Lowest effective dose, Metrazol (Phase I): 30 milligrams per kilogram of bod
[2]; SC, challenge time 4 hrs
  Lowest effective dose, Metrazol (Phase I): 100 milligrams per kilogram of bod
[3]
  Time of peak activity (Phase II): 6 h

## C1CCc2nnnn2CC1.[Cl-].[Cl-].[Cu+2] [Cu(II)(Metrazol)Cl2]
[1]; IP
  Anticonvulsant activity, Maximal Electroshock: I
[1]; [8]
  Anticonvulsant activity, Maximal Electroshock: I
[3]; running text
  Anticonvulsant activity (in words): some anticonvulsant activity when injected at a site different from the site of Metrazol injection
[7]
  Rotating rod toxicity (in words): no rotating rod toxicity at doses up to 600 mg/kg

## Nc1ccc(C(=O)[O-])c(O)c1.Nc1ccc(C(=O)[O-])c(O)c1.[Cu+2] [Cu(II)(4-aminosalicylate)2]
[1]; Table II, IP
  Anticonvulsant activity, Maximal Electroshock (Phase I): I
[3]; running text
  Anticonvulsant activity (in words): effective in preventing seizures
[5]
  Doses causing death in some of the test groups: higher than 300 mg/kg
  Lethality (in words): Lethal at higher doses

## O=C([O-])c1ccc([N+](=O)[O-])cc1O.O=C([O-])c1ccc([N+](=O)[O-])cc1O.[Cu+2] [Cu(II)(4-nitrosalicylate)2]
[1]; Table II, IP
  Anticonvulsant activity, Maximal Electroshock (Phase I): I
[3]; running text
  Anticonvulsant activity (in words): effective in preventing seizures
[5]
  Doses causing death in some of the test groups: higher than 100 mg/kg

## CCC1(CCC(C)C)C(=O)[N-]C(=O)NC1=O.CCC1(CCC(C)C)C(=O)[N-]C(=O)NC1=O.CCC1(CCC(C)C)C(=O)[N-]C(=O)NC1=O.CCC1(CCC(C)C)C(=O)[N-]C(=O)NC1=O.O.O.O.O.O.[Cu+2].[Cu+2] [Cu(II)(Amobarbital)2 (H2 O)2.5]
[1]; IP
  ED50 for inhibition of seizures, MES (Phase II): 87 mg/kg
[1]; IP, challenge time 30 min
  Lowest effective dose, MES (Phase I): 300 milligrams per kilogram of bod
[1]; IP, challenge time 4 hrs
  Lowest effective dose, MES (Phase I): I
[2]; IP
  ED50 for inhibition of seizures, Metrazol (Phase II): 87 mg/kg
[2]; IP, challenge time 30 min
  Lowest effective dose, Metrazol (Phase I): 30 milligrams per kilogram of bod
[2]; IP, challenge time 4 hrs
  Lowest effective dose, Metrazol (Phase I): I
[3]
  Time of peak activity (Phase II): 0.5 h
